Results reported in patent publication US20090252754A1, “Vaccines containing the hiv tat protein as an adjuvant for the enhancement of cytotoxic t-cell responses” (priority 2003, published 2009).

Key:
[1] = system: LMP2; assay: LMP2 expression in splenocytes of mice treated i.m. with Tat (Western blot); format: in vivo; settings: Balb/c mice, 1 μg i.m., 3 consecutive treatments
Text: (§1) Equal amounts of proteins were loaded on a 12% SDS-PAGE gel and electroblotted onto Protran nitrocellulose membranes (Schleicher & Schuell, Keene, Hampshire, USA). The blots were probed with antibodies specific for α2, LMP2, LMP7, MECL1, and PA28α subunits (Affinity, Exeter, UK) and developed by enhanced chemiluminescence (ECL, Amersham Pharmacia Biotech, Uppsala, SW).
Animal use was according to national and institutional guidelines. Seven-to-eight week old female Balb/c mice (Nossan, Milan, Italy) were injected with native monomeric biologically active Tat protein (1 μg) resuspended in degassed sterile PBS. Control mice were injected with oxidised Tat (1 μg) or with PBS alone. Samples (100 μl) were given by intramuscular (i.m.) injections in the quadriceps muscles of the posterior legs. Each experimental group consisted of three mice, and the experiment was repeated twice. Mice were boosted at days 11 and 20 after the first injection. Seven days after the last injection, animals were anaesthetised intraperitoneally (i.p.) with 100 μl of isotonic solution containing 1 mg of Inoketan (Virbac, Milan, Italy), and 200 μg Rompun (Bayer, Milan, Italy) and sacrificed to collect spleens. Mononuclear cells from individual spleens were purified using cells strainers, resuspended in PBS containing 20 mM EDTA, and treated with a red blood cells lysis buffer for 4 minutes at room temperature. […]

[2] = system: proteasome subunits (α2, PA28α, LMP2, LMP7, MECL1) in MIN and MON LCL's; assay: Western blot of proteasome subunits in lymphoblastoid cell lines expressing or treated with Tat; format: cell-based, human
Description: PG13 murine amphotropic packaging cell line^54 was cultured in DMEM supplemented with 10% FCS. Jurkat T cell transfectants (pRPneo-c and pRPneo-c-Tat)^22 were cultured in RPMI 1640 medium, supplemented with 10% FCS and 800 μg/ml neomycin (Sigma). Lymphoblastoid cell lines (LCL) were established by in vitro infection of normal B-lymphocytes from healthy donors with the B95.8 strain of EBV. LCL's were cultured in RPMI 1640 medium supplemented with 10% FCS.
MIN and MON LCL's were transduced with pBabePuro-Tat (MIN-Tat and MON-Tat) or pBabePuro (MIN-0 and MON-0) recombinant retroviruses by co-cultivation with packaging cell lines using transwell-clear tissue culture membranes. Subconfluent PG13 pBabePuro and PG13 pBabePuro-Tat cells, grown in the lower chamber, were co-cultivated in the presence of 8 μg/ml polybrene (Sigma) with MIN or MON LCL's (3×10^6/well) added to the upper chamber in 2.5 ml of RPMI 1640 medium supplemented with 10% FCS. After 48 hrs of co-cultivation, cells were harvested from the membranes and grown in culture medium containing puromycin (0.3 μg/ml) for 6 weeks. All cell lines were characterised by DNA-PCR, RT-PCR and Northern blot analysis.
as §1
To test the effect on proteasomes in cells after the up-take of exogenous Tat protein, MIN and MON LCL's were cultured in the absence or presence of increasing concentrations of biologically active Tat protein for 24 hours at 37° C. After treatment, the expression of the different subunits was analysed and compared to that of untreated cells. […] However, treatment with 0.1-1 μg/ml of Tat determined a down-regulation of LMP2 and an up-regulation of LMP7 and MECL1 as compared to untreated cells (FIG. 4).

[3] = system: proteasome subunits (α2, LMP2, LMP7, MECL1) in Jurkat cells; assay: Western blot of proteasome subunits in Jurkat cells expressing or treated with Tat, Tat mutants or Tat peptides; format: cell-based, human
Description: Jurkat T cells expressing Tat or mutated Tat (referred to as Tat22, wherein a Cys at position 22 is mutated) have previously been described (1). Cells were cultured in a medium supplemented with 800 μg/ml neomycin (Sigma, St. Louise, […].).
Cells were lysed with glass beads as previously described (4). Supernatants were ultracentrifuged for 1 h at 100,000 g and loaded into an affinity column containing a matrix derivatised with the MCP21 mAb specific for the α2 subunit of the proteasome (Affinity, Exeter, UK). Proteasomes were eluted with 25 mM Tris-HCl pH 7.5 containing 2 M NaCl, and 0.5 ml fractions were collected. Homogeneity of the eluted material was confirmed by analysis of an aliquot by SDS 12% PAGE and Coomassie blue staining of the gel. Fractions containing proteasomes were combined and dialysed against 25 mM Tris-HCl pH 7.5. Protein concentration was determined using the BCA method (Pierce Chemical, Rockford, Ill.).
Equal amounts of proteins, or equal amounts of purified proteasomes, were loaded on a 12% SDS-PAGE and electro-blotted onto Protran nitrocellulose membranes (Schleicher & Schuell, Keene, Hampshire, USA). Blots were probed with Abs specific for α2, LMP2 LMP7, MECL1, and PA28α subunits (Affinity), and developed by enhanced chemi-luminescence (ECL, Amersham Pharmacia Biotech, Uppsala, SW).

[4] = LCL's expressing endogenous Tat vs control cells
[5] = LCL's treated with 0.1-1 μg/ml of Tat, 24 hours, vs untreated
[6] = endogenous expression of Tat in Jurkat cells

Tat: HIV-1 Tat protein from HTLV type IIIB isolate, expressed in E. Coli or endogenously in cells; wild type SEQ ID NO 284
LMP2 expression in splenocytes [1]: down-regulation
proteasome expression (α2-subunit) ([2]; LCL's expressing endogenous Tat (MIN-Tat, MON-Tat) vs control cells): No difference
expression of LMP2 [2, 4]: marked down-regulation
expression of LMP7 [2, 4]: up-regulation
expression of MECL1 [2, 4]: up-regulation
expression of PA28α regulator [2, 4]: no differences
expression of LMP2 [2, 5]: down-regulation
expression of LMP7 [2, 5]: up-regulation
expression of MECL1 [2, 5]: up-regulation
expression of the α2-subunit ([2]; MIN and MON LCL's cultured with exogenous Tat protein, 24 hours, vs untreated): No difference
LMP2 expression in total cell lysates ([3]; Jurkat cells treated for 24 h with 0.1 μg/ml): induced down-regulation
expression of LMP2 subunit from purified proteasomes ([3]; Jurkat cells, exogenous native Tat, 24 h, 0.1-1 μg/ml): maximal down-modulation
expression of LMP2 [3, 6]: down-regulation
expression of LMP7 [3, 6]: up-regulation
expression of MECL1 [3, 6]: up-regulation
